Several values for one entry are separate records, joined by “and”; a condition that tells them apart may be missing. Equal entries are not always repeated.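 Results reflect a 48-hour exposure of cells in 96-well plates to compound at five concentrations. The concentration for 50% growth inhibition is given as GI50. At the TGI there is no net growth.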
Columns and labels:
Experiment in all cases: inhibition of tumour cell growth, NCI panel, 48 h
COLO 205 colon = tested on: COLO 205 colon
HOP-62 NSCLC = tested on: HOP-62 NSCLC
KM12 colon = tested on: KM12 colon
HCC-2998 colon = tested on: HCC-2998 colon
LOX IMVI melanoma = tested on: LOX IMVI melanoma
EKVX NSCLC = tested on: EKVX NSCLC
HOP-92 NSCLC = tested on: HOP-92 NSCLC
M19-MEL melanoma = tested on: M19-MEL melanoma
KM20L2 colon = tested on: KM20L2 colon
DMS 273 small cell lung = tested on: DMS 273 small cell lung

| Compound | GI50 (COLO 205 colon) | TGI (COLO 205 colon) | GI50 (HOP-62 NSCLC) | TGI (HOP-62 NSCLC) | GI50 (KM12 colon) | TGI (KM12 colon) | GI50 (HCC-2998 colon) | TGI (HCC-2998 colon) | GI50 (LOX IMVI melanoma) | TGI (LOX IMVI melanoma) | GI50 (EKVX NSCLC) | TGI (EKVX NSCLC) | GI50 (HOP-92 NSCLC) | TGI (HOP-92 NSCLC) | TGI (M19-MEL melanoma) | TGI (KM20L2 colon) | TGI (DMS 273 small cell lung) |
| --- | --- | --- | --- | --- | --- | --- | --- | --- | --- | --- | --- | --- | --- | --- | --- | --- | --- |
| CO[C@H](C(=O)[C@@H](O)[C@@H](C)O)[C@@H]1Cc2cc3cc(O[C@H]4C[C@@H](O[C@H]5C[C@@H](O)[C@H](O)C(C)O5)[C@H](O)C(C)O4)c(C)c(O)c3c(O)c2C(=O)[C@H]1O[C@H]1C[C@@H](O[C@H]2C[C@@H](O[C@H]3C[C@@H](OC)[C@H](O)C(C)O3)[C@@H](O)C(C)O2)C(O)(O)C(C)O1 (stereo partly drawn) | 0.0833 µM | 0.89 µM | 0.0513 µM | > 25 µM | 0.102 µM | > 25 µM | 0.47 µM | 5.09 µM | 0.0745 µM | 3.68 µM | 0.318 µM | > 25 µM | 0.103 µM | > 6.49 µM |  |  |  |
| Cn1cc(-c2nonc2-c2c[nH]c3ccccc23)c2ccccc21 | 0.465 µM | 10.5 µM | 0.47 µM | 17 µM | 0.396 µM | 8.74 µM | 1.26 µM | 7.08 µM | 0.65 µM | 13 µM | 0.567 µM | 16 µM | 1.08 µM | 9.91 µM |  |  |  |
| COc1ccc(C#Cc2ccccc2C#CCCCCO)cc1 | 17.6 µM | 33.4 µM | 28.6 µM | 45.4 µM | 17.7 µM | 33.4 µM | 17.9 µM | 33.3 µM | 16.9 µM | 30.6 µM | 23.6 µM | 54 µM | 23.5 µM | 47.7 µM |  |  |  |
| COC(=O)[C@@H](NC(=O)NC(=O)NC(=O)CI)C(C)C | 1.97 µM | 4.01 µM | 18.3 µM | 33.7 µM | 17.4 µM | 33.8 µM | 13.4 µM | 27.4 µM | 1.69 µM | 3.33 µM | 17.2 µM | 31.4 µM | 2.7 µM | 7.36 µM |  |  |  |
| N#Cc1cc(C#N)c(Cl)nc1N |  | > 10 µM |  | > 10 µM |  | > 10 µM |  | > 10 µM |  | > 10 µM |  | > 10 µM |  | > 10 µM |  |  |  |
| NNC(=S)N/N=C(\CCCC(=O)NCCc1ccccc1)CC(=O)c1ccccc1 |  | > 100 µM |  | > 100 µM |  | > 100 µM |  | > 100 µM |  |  |  | > 100 µM |  | > 100 µM | > 100 µM | > 100 µM |  |
| CN1CCN(c2ccc(C(=O)Nc3n[nH]c4ccc(Cc5cc(F)cc(F)c5)cc34)c(NC3CCOCC3)c2)CC1 | 1.48 µM | 3.1 µM | 2.66 µM | > 10 µM | 0.00436 µM | 1.49 µM and 1.12 µM | 1.49 µM and 1.59 µM | 3 µM and 3.18 µM | 1.35 µM and 1.34 µM | 2.7 µM and 2.69 µM | 3.07 µM | > 10 µM | 0.446 µM and 1.04 µM | 3.03 µM and 2.4 µM |  |  |  |
| O=C(O)c1ccccc1Cc1ccco1 |  | > 100 µM |  | > 100 µM |  | > 100 µM |  | > 100 µM |  |  |  | > 100 µM |  | > 100 µM |  | > 100 µM | > 100 µM |
| O=[N+]([O-])c1ccc(Nc2ccccc2-c2ccccc2)c2nonc12 | 18.6 µM | 45.2 µM | 17.4 µM | 42.7 µM | 13.9 µM | 32.5 µM | 11.7 µM | 27.2 µM | 12.8 µM | 26.6 µM | 15.5 µM | 64.1 µM | 3.15 µM | 23.4 µM |  |  |  |
| Nc1ccn(C2OC(CO)C(O)C2F)c(=O)n1 (stereo not drawn) | 688 µM | > 5000 µM | > 5000 µM | > 5000 µM | > 5000 µM | > 5000 µM | > 5000 µM | > 5000 µM | > 5000 µM | > 5000 µM | > 5000 µM | > 5000 µM | > 5000 µM | > 5000 µM |  |  |  |
| Cc1c2cc[nH]c(=O)c2c(C)c2c1[nH]c1cc(OCCN3CCN(C)CC3)ccc12 | 0.353 µM | 2.2 µM | 0.469 µM | 3.24 µM | 1.19 µM | 5.61 µM | 1.26 µM | 7.24 µM | 0.484 µM | 1.9 µM | 1.11 µM | 10.3 µM | 0.798 µM | 5.46 µM |  |  |  |
| COc1ccc(/C(=N/NC(N)=O)C2(O)C(=O)Nc3ccc([N+](=O)[O-])cc32)cc1 (stereo not drawn) |  | 53.4 µM |  | > 100 µM |  | 49.5 µM |  | > 100 µM |  |  |  | > 100 µM |  | 45.4 µM | 45.6 µM | 51.5 µM | 39.3 µM |
| Nc1nc(CCC(=O)Nc2cccc(C(F)(F)F)c2)cc(-c2cccc3ccccc23)n1 |  | > 100 µM |  | > 100 µM |  | > 100 µM |  | > 100 µM |  | > 100 µM |  | > 100 µM |  |  | > 100 µM | > 100 µM | > 100 µM |
| CCOc1ccc(NC(=O)CC2SC(=Nc3ccc(Cl)cc3)NC2=O)cc1 (stereo not drawn) |  | > 100 µM |  | > 100 µM |  | > 100 µM |  | > 100 µM |  | > 100 µM |  | > 100 µM |  |  | > 100 µM | > 100 µM | > 100 µM |
| CC[P+](C)(Cc1ccccc1)c1ccccc1 (stereo not drawn) |  | > 100 µM |  | > 100 µM |  | > 100 µM |  | > 100 µM |  | > 100 µM |  | > 100 µM |  |  | > 100 µM | > 100 µM | > 100 µM |
| COc1cccc2c1C(=O)c1c(O)c3c(c(O)c1C2=O)CC(O)(C(C)=O)CC3OC1CC(N)C(O)C(C)O1 (stereo not drawn) | 0.114 µg/mL | 0.334 µg/mL | 0.0221 µg/mL | 2.08 µg/mL | 0.0445 µg/mL | 0.776 µg/mL | 0.243 µg/mL | 0.912 µg/mL | 0.0166 µg/mL | 1.57 µg/mL | 0.191 µg/mL | 2.66 µg/mL | 0.0155 µg/mL | 0.413 µg/mL |  |  |  |
| Cc1cc(C)nc(NC(N)=NCCc2ccccc2)n1 | 2.68 µM | 12.5 µM | 3.16 µM | 53.1 µM | 3.62 µM | > 100 µM | 8.41 µM | 30.6 µM | 2.03 µM | 44.3 µM | 3.66 µM | 89.9 µM | 3.97 µM | 73.1 µM |  |  |  |
| c1ccc(SC2(Sc3ccccc3)CCCC2)cc1 |  | > 100 µM |  | > 100 µM |  | > 100 µM |  |  |  | > 100 µM |  | > 100 µM |  | > 100 µM | > 100 µM | > 100 µM | > 100 µM |

Source: PubChem BioAssay (NCI)
